In US20160221974A1, “SODIUM CHANNEL MODULATORS FOR THE TREATMENT OF PAIN AND DIABETES” (CHROMOCELL CORPORATION, priority 2013, published 2016):
pIC50: −log10 of the molar value.

What was measured:
hNaV1.7 = target: T1, hNaV1.7 (Homo sapiens, UniProt Q15858); test: FDSS Membrane Potential In-Vitro Assay; assay type: cell-based; conditions: stimulation with veratridine and scorpion venom, read-out: NaV1.7 IC50
T1 construct: expressed in transfected cells

NaV1.7 = target: T2, NaV1.7 (Homo sapiens, UniProt Q15858); test: Patchliner Electrophysiological In-Vitro Assay (NaV1.7); assay type: cell-based; conditions: Patchliner patch clamp, HEK293, holding at V1/2
T2 construct: expressed in transfected cells
T2 sequence (Q15858 whole entry): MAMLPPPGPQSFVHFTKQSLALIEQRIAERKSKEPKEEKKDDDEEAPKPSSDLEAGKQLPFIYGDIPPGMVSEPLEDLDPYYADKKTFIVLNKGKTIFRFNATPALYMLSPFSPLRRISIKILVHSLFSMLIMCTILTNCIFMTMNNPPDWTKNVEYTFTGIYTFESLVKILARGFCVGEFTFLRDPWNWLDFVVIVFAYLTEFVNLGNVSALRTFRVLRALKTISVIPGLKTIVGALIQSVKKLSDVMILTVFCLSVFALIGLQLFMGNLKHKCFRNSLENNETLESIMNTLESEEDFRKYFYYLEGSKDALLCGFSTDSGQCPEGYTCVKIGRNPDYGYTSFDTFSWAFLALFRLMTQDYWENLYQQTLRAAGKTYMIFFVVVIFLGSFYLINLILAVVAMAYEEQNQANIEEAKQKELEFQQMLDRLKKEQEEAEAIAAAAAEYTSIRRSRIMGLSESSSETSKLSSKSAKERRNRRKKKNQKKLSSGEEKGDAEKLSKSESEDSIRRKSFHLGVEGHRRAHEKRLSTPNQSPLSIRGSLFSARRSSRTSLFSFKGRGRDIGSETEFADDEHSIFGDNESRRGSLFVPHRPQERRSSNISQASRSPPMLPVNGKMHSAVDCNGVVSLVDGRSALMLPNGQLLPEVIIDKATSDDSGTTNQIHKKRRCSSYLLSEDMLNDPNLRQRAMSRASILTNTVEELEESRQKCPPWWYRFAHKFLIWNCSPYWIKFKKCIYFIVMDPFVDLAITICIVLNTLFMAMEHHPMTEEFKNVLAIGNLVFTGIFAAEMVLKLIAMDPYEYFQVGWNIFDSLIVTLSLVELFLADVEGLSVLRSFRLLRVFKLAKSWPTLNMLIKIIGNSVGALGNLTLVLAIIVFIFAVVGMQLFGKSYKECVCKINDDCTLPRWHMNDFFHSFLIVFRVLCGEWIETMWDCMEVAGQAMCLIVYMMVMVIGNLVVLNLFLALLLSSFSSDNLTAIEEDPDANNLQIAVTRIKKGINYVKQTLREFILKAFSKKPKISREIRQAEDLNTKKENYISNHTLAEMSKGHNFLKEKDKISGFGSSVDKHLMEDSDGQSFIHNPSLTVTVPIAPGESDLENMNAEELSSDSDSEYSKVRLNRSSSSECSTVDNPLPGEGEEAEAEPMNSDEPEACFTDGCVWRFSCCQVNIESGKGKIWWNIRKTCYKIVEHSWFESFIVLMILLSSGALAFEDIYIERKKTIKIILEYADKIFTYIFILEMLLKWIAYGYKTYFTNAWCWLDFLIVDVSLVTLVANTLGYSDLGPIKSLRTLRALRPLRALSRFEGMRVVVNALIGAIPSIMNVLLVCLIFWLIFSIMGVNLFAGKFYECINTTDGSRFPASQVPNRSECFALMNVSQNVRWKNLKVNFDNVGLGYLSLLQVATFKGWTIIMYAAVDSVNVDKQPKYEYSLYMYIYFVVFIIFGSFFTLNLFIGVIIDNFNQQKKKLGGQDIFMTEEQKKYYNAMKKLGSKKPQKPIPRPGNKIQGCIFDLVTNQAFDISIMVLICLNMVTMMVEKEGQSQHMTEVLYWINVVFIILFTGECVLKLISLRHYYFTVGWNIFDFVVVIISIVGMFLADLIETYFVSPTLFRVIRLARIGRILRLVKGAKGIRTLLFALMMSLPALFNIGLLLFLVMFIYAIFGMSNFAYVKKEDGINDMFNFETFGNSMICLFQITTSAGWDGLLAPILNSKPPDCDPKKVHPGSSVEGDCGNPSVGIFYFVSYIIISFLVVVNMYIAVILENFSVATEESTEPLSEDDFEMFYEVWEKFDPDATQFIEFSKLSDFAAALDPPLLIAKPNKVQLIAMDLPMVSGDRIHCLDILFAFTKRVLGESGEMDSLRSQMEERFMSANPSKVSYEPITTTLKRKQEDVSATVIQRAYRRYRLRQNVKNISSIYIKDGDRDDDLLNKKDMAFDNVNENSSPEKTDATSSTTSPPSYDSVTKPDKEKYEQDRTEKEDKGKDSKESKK
T2 sequence (Q07699 19-218 partner): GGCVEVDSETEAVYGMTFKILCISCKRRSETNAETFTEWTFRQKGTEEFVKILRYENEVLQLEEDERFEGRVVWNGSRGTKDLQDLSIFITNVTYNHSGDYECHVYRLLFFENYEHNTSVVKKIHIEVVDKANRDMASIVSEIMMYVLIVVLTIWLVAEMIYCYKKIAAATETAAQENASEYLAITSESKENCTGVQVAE
T2 sequence (O60939 30-215 partner): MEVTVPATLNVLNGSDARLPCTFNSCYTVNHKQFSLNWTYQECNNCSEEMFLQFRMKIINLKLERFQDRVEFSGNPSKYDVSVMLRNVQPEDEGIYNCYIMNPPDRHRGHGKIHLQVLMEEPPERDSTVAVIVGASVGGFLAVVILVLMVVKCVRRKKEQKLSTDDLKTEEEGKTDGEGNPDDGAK
Method in brief: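 Automated whole-cell patch clamp at room temperature on HEK293 cells stably expressing hNav1.7 with β1 and β2 subunits. Inactivated-state Ki: cells held at their own V1/2, stepped to −120 mV for 5–10 ms, then to Vmax for 10–20 ms, repeated every 10 s; dose-dependent inhibition analysed.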

CYP3A4 = target: T3, CYP3A4 (Homo sapiens, UniProt P08684); test: In-Vitro Cytochrome P450 (CYP450) Inhibition Assay (Vivid CYP450); assay type: in vitro ADME; conditions: CYP3A4 enzyme complex (Vivid CYP450, Invitrogen), 6 μM test concentration
T3 construct: purchased Invitrogen
T3 sequence (P08684 2-503 limits assumed): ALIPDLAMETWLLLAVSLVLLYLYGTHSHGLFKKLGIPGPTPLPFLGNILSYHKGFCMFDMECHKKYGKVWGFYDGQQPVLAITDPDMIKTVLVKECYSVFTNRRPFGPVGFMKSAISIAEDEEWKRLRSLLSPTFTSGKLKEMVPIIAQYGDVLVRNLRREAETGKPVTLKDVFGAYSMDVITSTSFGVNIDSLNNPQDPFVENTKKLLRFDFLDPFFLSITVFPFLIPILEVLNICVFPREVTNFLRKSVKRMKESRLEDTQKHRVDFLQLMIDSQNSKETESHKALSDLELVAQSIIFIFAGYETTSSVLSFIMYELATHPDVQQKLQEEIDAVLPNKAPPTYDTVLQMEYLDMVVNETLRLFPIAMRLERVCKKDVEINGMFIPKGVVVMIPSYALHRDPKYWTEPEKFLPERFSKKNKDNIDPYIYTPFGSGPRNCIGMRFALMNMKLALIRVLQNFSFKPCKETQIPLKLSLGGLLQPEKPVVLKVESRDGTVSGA
Method: We evaluated interaction of drug candidates with cytochrome P450 enzymes which are a major determinant of drug clearance via oxidative metabolism using a high throughput compatible, fluorescence based CYP450 screening assay (Vivid® CYP450, Invitrogen) according to manufacturer's directions.
In brief, test compounds at four different concentrations (μM—6.0, 2.0, 0.7, 0.2), a positive control (Ketoconazole) and a solvent control were incubated at room temperature in unique wells of a 96-well microtiter plate with CYP3A4 enzyme complex for 20 minutes. A pre-read fluorescence (Ex−485 nm/Em−530 nm) was measured at the start of the incubation using a Tecan Safire^2 microplate reader-monochromator to determine background fluorescence. At the end of the incubation period, enzyme substrate and co-enzyme were added and the reaction was kinetically monitored for 1 hour by measuring fluorescence every minute. Effect of test compounds on inhibition of CYP3A4 metabolism of provided substrate was determined by calculating the ratio of the effective reaction rate in presence of test compound to that in the absence of inhibitor.

[1] = test system: Partial Sciatic Nerve Ligation (PSNL) model; test: Partial Sciatic Nerve Ligation (PSNL) model, behavioral tests; assay type: in vivo, male Sprague-Dawley rats; conditions: 30 mg/kg intraperitoneal, measured 30-60 minutes post dose
Description: 250-350 g male Sprague-Dawley rats from appropriate animal resources were anesthetized with 2.5% isoflurane. A hind leg was shaved, and the skin was sterilized with 0.5% iodine and 75% alcohol. All surgical instruments were sterilized before surgery and between animals. An incision (1 cm) was made at the middle of the thigh in parallel with the muscle and sciatic nerve distribution. The muscle was exposed and dissected at the joint of two muscles (biceps femoris) indicated by the light colored (white) fascia line. The sciatic nerve was just beneath the muscle and was hooked out using an 18-20 G feeding needle (90 degree curved); the sciatic nerve was flat on the feeding needle and approximately one-half the diameter of the nerve is tightly ligated with 7-0 silk suture. A response of the injured leg twitch indicates the success of ligation. After checking hemostasis, bupivicaine 0.1-0.2 ml (0.125%) was given at the incision area, the muscle and the adjacent fascia are closed with 5-0 absorbable sutures. The skin was sutured with absorbable suture and tissue glue. The control group using sham surgery animals (about 8-10 animals) underwent the same surgical procedure but with no nerve ligation. Animals were returned to their home cage after recovery from anesthesia.
The analgesic effect of the test compound was expressed as a percent recovery (% Recovery) relative to the sham control group baseline and calculated according to the formula:
% Recovery=100%−{[(sham mean−test compound mean)/(sham mean−vehicle mean)]×100%}
wherein “sham mean” refers to average score in the sham-operated group; “test compound mean” refers to average score in the PSNL-group (animals with partial sciatic nerve ligation) or diabetic group (animals treated with STZ) treated with a test compound; “vehicle mean” refers to average score in the PSNL-group or diabetic group treated with vehicle only. The above formula was used to obtain data for the following in vivo behavioral tests.
The following behavioral tests were conducted (i.e., plantar test, paw pressure test, and von Frey test) started on day 3 and thereafter once weekly following surgery or use of a diabetic inducer. […]
Rats were placed on the glass surface of a thermal testing apparatus (Model 336, IITC/Life Science Instruments, Woodland Hills, Calif.) and were allowed to acclimate for 10 min before testing on the glass surface at room temperature. […] The paw withdrawal latency was recorded by a digital timer. The thermal threshold was determined as the mean withdrawal latency from two to three consecutive trials of both hindpaws. […]
Animals were placed under clear plastic boxes above a wire mesh floor, which allowed full access to the paws. […] Mechanical paw withdrawal thresholds (PWTs) were measured with the up-down testing paradigm. […]

[2] = test system: Acetic Acid Writhing Model; test: Writhing Model (Inflammatory Abdominal Pain), rats; assay type: in vivo; conditions: relative to vehicle control, doses of 10 to 30 mg/kg intraperitoneal route
Method: The Acetic Acid Writhing Model is associated with visceral pain (abdominal pain, such as stomach pain, and pain caused by, for example, bile duct congestion and kidney stones). A writhing test assesses acute peritoneovisceral pain. After acclimation of 2-3 days, a test compound, positive control or vehicle control was administered by intraperitoneal injection (i.p.) or by oral gavage 15-30 minutes prior to administration of acetic acid. The time of administration of test compound was recorded. For mice: Method A: 0.6% Acetic acid solution in saline was injected i.p. in a volume of 10 ml/kg; Method B: 1.2% Acetic acid solution in saline was injected i.p. in a volume of 5 ml/kg. For rats: 4% acetic acid in saline was injected i.p in a volume of 2 ml/kg at T=0 minutes. Each animal was placed in a clear plastic cage. At T=5 minutes, the number of writhing movements was counted over a 45 minute period. Alternatively, the writhing movements were counted over a 5-minute period and repeated every 5 minutes, starting at T=5 minutes over a 45-minute period. For each compound tested, the individual score was obtained by calculating the accumulated writhing movements for the time period studied. […]

T1 sequence (Q15858 whole entry): as the sequence (Q15858 whole entry) above
T1 sequence (Q07699 19-218 partner): as the sequence (Q07699 19-218 partner) above
T1 sequence (O60939 30-215 partner): as the sequence (O60939 30-215 partner) above

Q: How did the pIC50 (hNaV1.7) turn out when O=C(O)CNC(=O)c1cc(-c2cc(Cl)ccc2Oc2cc(F)c(S(=O)(=O)Nc3ncns3)cc2Cl)ccn1 [Compound 2, 2-(4-(2-(4-(N-(1,2,4-thiadiazol-5-yl)sulfamoyl)-2-chloro-5-fluorophenoxy)-5-chlorophenyl)picolinamido)acetic acid] was run?
A: > 6.89

Q: And the pIC50 (NaV1.7)?
A: > 7.00

Q: What about the inhibition at 1 hour, 6 µM (CYP3A4) of the same compound?
A: 50 to 100%

Q: And the “effect in the tactile allodynia test” value [1]?
A: no significant effect

Q: And the “reduction in pain (writhing)” value [2]?
A: 48-58%
